Experimental data published in patent US9051330B2, “Dithiolopyrrolones with therapeutic activity” (Welichem Biotech Inc., priority 2002, dated 2015).
Where two headings read alike, the source gives them in different places.

What was measured:
Assay type in all cases: cell-based, human
H460 = assay: NCI standard anti-proliferative test, H460 cells
Ovcar-3 cell line = assay: NCI standard anti-proliferative test, ovarian cancer Ovcar-3 cells
From the text: (§1) These assays are commonly used by those skilled in the art and are accepted as indicative of antiproliferative activity in mammals. The antiproliferative activities of the compounds of the invention have been determined in cell cultures of human ovarian cancer, using a standard anti-proliferative test of the US National Cancer Institute (NCI). [Monks, A. et al., J. Natl. Cancer Inst. 83(11): 757-766, 1991].
The novel compound had activity against 56 cancer cell lines of a wide range of major cancers. (Table 1a).

SR = assay: NCI anti-proliferative test, Leukemia SR
SN12C = assay: NCI anti-proliferative test, Renal Cancer SN12C
SNB-19 = assay: NCI anti-proliferative test, CNS Cancer SNB-19
K-562 = assay: NCI anti-proliferative test, Leukemia K-562
COLO 205 = assay: NCI anti-proliferative test, Colon Cancer COLO 205
NCI-H23 = assay: NCI anti-proliferative test, Non-Small Cell Lung Cancer NCI-H23
SK-MEL-2 = assay: NCI anti-proliferative test, Melanoma SK-MEL-2
OVCAR-5 = assay: NCI anti-proliferative test, Ovarian Cancer OVCAR-5
From the text: as §1

MDA-MB-231/ATCC = assay: NCI anti-proliferative test, Breast Cancer MDA-MB-231/ATCC
KM12 = assay: NCI anti-proliferative test, Colon Cancer KM12
OVCAR-8 = assay: NCI anti-proliferative test, Ovarian Cancer OVCAR-8
From the text: as §1

SF-268 = assay: NCI anti-proliferative test, CNS Cancer SF-268
TK-10 = assay: NCI anti-proliferative test, Renal Cancer TK-10
HCT-15 = assay: NCI anti-proliferative test, Colon Cancer HCT-15
CAKI-1 = assay: NCI anti-proliferative test, Renal Cancer CAKI-1
NCI-H322M = assay: NCI anti-proliferative test, Non-Small Cell Lung Cancer NCI-H322M
HT29 = assay: NCI anti-proliferative test, Colon Cancer HT29
DU-145 = assay: NCI anti-proliferative test, Prostate Cancer DU-145
HCC-2998 = assay: NCI anti-proliferative test, Colon Cancer HCC-2998
HOP-92 = assay: NCI anti-proliferative test, Non-Small Cell Lung Cancer HOP-92
PC-3 = assay: NCI anti-proliferative test, Prostate Cancer PC-3
LOX IMVI = assay: NCI anti-proliferative test, Melanoma LOX IMVI
RPMI-8226 = assay: NCI anti-proliferative test, Leukemia RPMI-8226
MALME-3M = assay: NCI anti-proliferative test, Melanoma MALME-3M
SW-620 = assay: NCI anti-proliferative test, Colon Cancer SW-620
HS 578T = assay: NCI anti-proliferative test, Breast Cancer HS 578T
MDA-MB-435 = assay: NCI anti-proliferative test, Breast Cancer MDA-MB-435
UACC-62 = assay: NCI anti-proliferative test, Melanoma UACC-62
ACHN = assay: NCI anti-proliferative test, Renal Cancer ACHN
SK-MEL-28 = assay: NCI anti-proliferative test, Melanoma SK-MEL-28
UACC-257 = assay: NCI anti-proliferative test, Melanoma UACC-257
A549/ATCC = assay: NCI anti-proliferative test, Non-Small Cell Lung Cancer A549/ATCC
MCF7 = assay: NCI anti-proliferative test, Breast Cancer MCF7
RXF 393 = assay: NCI anti-proliferative test, Renal Cancer RXF 393
HL-60(TB) = assay: NCI anti-proliferative test, Leukemia HL-60(TB)
SF-539 = assay: NCI anti-proliferative test, CNS Cancer SF-539
HCT-116 = assay: NCI anti-proliferative test, Colon Cancer HCT-116
IGROV1 = assay: NCI anti-proliferative test, Ovarian Cancer IGROV1
From the text: as §1

CCRF-CEM = assay: NCI anti-proliferative test, Leukemia CCRF-CEM
U251 = assay: NCI anti-proliferative test, CNS Cancer U251
EKVX = assay: NCI anti-proliferative test, Non-Small Cell Lung Cancer EKVX
SK-MEL-5 = assay: NCI anti-proliferative test, Melanoma SK-MEL-5
A498 = assay: NCI anti-proliferative test, Renal Cancer A498
MOLT-4 = assay: NCI anti-proliferative test, Leukemia MOLT-4
SF-295 = assay: NCI anti-proliferative test, CNS Cancer SF-295
T-47D = assay: NCI anti-proliferative test, Breast Cancer T-47D
HOP-62 = assay: NCI anti-proliferative test, Non-Small Cell Lung Cancer HOP-62
NCI/ADR-RES = assay: NCI anti-proliferative test, Breast Cancer NCI/ADR-RES
UO-31 = assay: NCI anti-proliferative test, Renal Cancer UO-31
NCI-H226 = assay: NCI anti-proliferative test, Non-Small Cell Lung Cancer NCI-H226
786-0 = assay: NCI anti-proliferative test, Renal Cancer 786-0
NCI-H522 = assay: NCI anti-proliferative test, Non-Small Cell Lung Cancer NCI-H522
M14 = assay: NCI anti-proliferative test, Melanoma M14
BT-549 = assay: NCI anti-proliferative test, Breast Cancer BT-549
[1] = cancer cell line H460, read-out: IC50 H460
[2] = ovarian cancer cells Ovcar-3, comparison with XN3

## COc1ccc(-n2c3cssc-3c(NC(=O)CCC(=O)O)c2=O)c(OC)c1 [BLI-031-2]
H460; [1]
  IC50: > 50 µM

## COc1ccc(-n2c3cssc-3c(NC(=O)c3ccc(C(F)(F)F)cc3)c2=O)c(OC)c1 [BLI-093]
Ovcar-3 cell line; [2]
  IC50: 0.054 µM

## COc1ccc(-n2c3cssc-3c(NC(=O)Cc3cccs3)c2=O)c(OC)c1 [Compound 0037]
Ovcar-3 cell line; [2]
  IC50: 0.071 µM

## COc1ccc(-n2c3cssc-3c(NC(=O)c3ccc([N+](=O)[O-])cc3)c2=O)c(OC)c1 [Compound 0038]
Ovcar-3 cell line; [2]
  IC50: 0.068 µM

## COc1ccc(-n2c3cssc-3c(NC(=O)c3cc(C(F)(F)F)cc(C(F)(F)F)c3)c2=O)c(OC)c1 [Compound 0058]
SR
  IC50: 0.02 µM
SN12C
  IC50: 0.12 µM
SNB-19
  IC50: 0.23 µM
K-562
  IC50: 0.019 µM
COLO 205
  IC50: 0.15 µM
NCI-H23
  IC50: 0.21 µM
SK-MEL-2
  IC50: 0.18 µM
OVCAR-5
  IC50: 0.45 µM
MDA-MB-231/ATCC
  IC50: 0.13 µM
KM12
  IC50: 2.97 µM
OVCAR-8
  IC50: 0.17 µM
SF-268
  IC50: 0.14 µM
TK-10
  IC50: 1.37 µM
Ovcar-3 cell line; Ovarian Cancer, OVCAR-3, 56 cell line panel
  IC50: 0.03 µM
Ovcar-3 cell line; [2]
  IC50: 0.034 µM
HCT-15
  IC50: 0.02 µM
CAKI-1
  IC50: 0.44 µM
NCI-H322M
  IC50: 8.56 µM
HT29
  IC50: 0.05 µM
DU-145
  IC50: 0.013 µM
HCC-2998
  IC50: 0.11 µM
HOP-92
  IC50: 0.18 µM
PC-3
  IC50: 0.04 µM
LOX IMVI
  IC50: 0.014 µM
RPMI-8226
  IC50: < 0.01 µM
MALME-3M
  IC50: 0.19 µM
SW-620
  IC50: 0.034 µM
HS 578T
  IC50: 0.22 µM
MDA-MB-435
  IC50: 0.22 µM
UACC-62
  IC50: 0.19 µM
ACHN
  IC50: 0.14 µM
SK-MEL-28
  IC50: 0.016 µM
H460; Non-Small Cell Lung Cancer, NCI-H460, 56 cell line panel, read-out: IC50
  IC50: 0.26 µM
UACC-257
  IC50: 0.15 µM
A549/ATCC
  IC50: 0.42 µM
MCF7
  IC50: 0.17 µM
RXF 393
  IC50: 0.04 µM
HL-60(TB)
  IC50: 0.019 µM
SF-539
  IC50: 0.18 µM
HCT-116
  IC50: 0.016 µM
IGROV1
  IC50: 0.17 µM
CCRF-CEM
  IC50: < 0.01 µM
U251
  IC50: 0.15 µM
EKVX
  IC50: 0.13 µM
SK-MEL-5
  IC50: 0.12 µM
A498
  IC50: 0.19 µM
MOLT-4
  IC50: 0.15 µM
SF-295
  IC50: 0.23 µM
T-47D
  IC50: 0.013 µM
HOP-62
  IC50: 0.13 µM
NCI/ADR-RES
  IC50: 1.04 µM
UO-31
  IC50: 0.2 µM
NCI-H226
  IC50: 0.27 µM
786-0
  IC50: 0.06 µM
NCI-H522
  IC50: 0.19 µM
M14
  IC50: 0.24 µM
BT-549
  IC50: 0.15 µM

## COc1ccc(-n2c3cssc-3c(NC(=O)c3ccc(CN4CCNCC4)cc3)c2=O)c(OC)c1 [Compound 0069]
H460; [1]
  IC50: 0.04 µM

## COc1ccc(-n2c3cssc-3c(NC(=O)c3cc(F)cc(F)c3)c2=O)c(OC)c1 [Compound R3]
Ovcar-3 cell line; [2]
  IC50: 0.078 µM

## COc1ccc(-n2c3cssc-3c(NC(=O)c3ccc(F)c(F)c3F)c2=O)c(OC)c1 [Compound R4]
Ovcar-3 cell line; [2]
  IC50: 0.046 µM

## COc1ccc(-n2c3cssc-3c(NC(=O)c3cccs3)c2=O)c(OC)c1 [WBL-007]
Ovcar-3 cell line; [2]
  IC50: 0.028 µM

## COc1ccc(-n2c3cssc-3c(NC(=O)c3ccc(F)cc3)c2=O)c(OC)c1 [WBL-018]
Ovcar-3 cell line; [2]
  IC50: 0.07 µM
